IC50 and pKa data for seven compounds are collected here from ChEMBL document CHEMBL1152007, “The synthesis and CCK receptor affinities of selected carboyxlic acid mimics of CI-988 - a potent and selective CCK-B antagonist” (Bioorg Med Chem Lett, 1992).

Data set [1] has as its target T1, Cholecystokinin receptor type A (Rattus norvegicus, UniProt P30551).
T1 sequence (P30551 whole entry): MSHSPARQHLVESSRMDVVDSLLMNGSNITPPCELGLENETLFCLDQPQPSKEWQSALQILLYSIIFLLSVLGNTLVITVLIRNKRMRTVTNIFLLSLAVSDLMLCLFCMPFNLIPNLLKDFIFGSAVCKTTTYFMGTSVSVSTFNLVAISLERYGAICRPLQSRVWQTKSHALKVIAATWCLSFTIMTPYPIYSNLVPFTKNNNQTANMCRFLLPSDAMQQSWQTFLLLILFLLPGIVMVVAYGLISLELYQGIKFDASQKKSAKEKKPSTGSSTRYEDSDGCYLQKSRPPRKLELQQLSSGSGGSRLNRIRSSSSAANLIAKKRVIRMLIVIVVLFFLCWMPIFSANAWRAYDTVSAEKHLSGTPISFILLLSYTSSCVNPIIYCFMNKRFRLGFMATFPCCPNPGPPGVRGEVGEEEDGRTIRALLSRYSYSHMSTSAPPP
Nature of the data set: The concentration (nM) producing half-maximal inhibition of specific binding of [1251] Bolton Hunter CCK-8 to CCK receptors in the rat pancreas (CCK-A);value ranges from 1100 to 1500.

Data set [2] concerns the target T2, Gastrin/cholecystokinin type B receptor (Mus musculus, UniProt P56481).
T2 sequence (P56481 whole entry): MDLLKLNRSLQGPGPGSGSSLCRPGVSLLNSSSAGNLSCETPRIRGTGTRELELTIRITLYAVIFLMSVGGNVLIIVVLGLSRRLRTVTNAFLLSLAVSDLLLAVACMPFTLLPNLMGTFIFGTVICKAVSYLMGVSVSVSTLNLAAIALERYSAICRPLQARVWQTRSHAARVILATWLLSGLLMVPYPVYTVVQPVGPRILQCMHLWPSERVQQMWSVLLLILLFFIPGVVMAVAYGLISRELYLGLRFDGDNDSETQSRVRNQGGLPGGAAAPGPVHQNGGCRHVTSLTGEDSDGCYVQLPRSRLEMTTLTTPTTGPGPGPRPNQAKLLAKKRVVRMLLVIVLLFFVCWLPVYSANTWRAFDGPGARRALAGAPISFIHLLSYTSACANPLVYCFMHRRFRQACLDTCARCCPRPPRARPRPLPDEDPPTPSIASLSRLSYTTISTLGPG
Nature of the data set: The concentration (nM) producing half-maximal inhibition of specific binding of [1251] Bolton Hunter CCK-8 to CCK receptors in the mouse cerebral cortex (CCK-B);value ranges from 5.3 to 7.7. It counts as tissue-based.

Data set [3] in a line: Dissociation constant, pKa was determined. The class given is physicochemical.
The target of data set [4] is T2, Gastrin/cholecystokinin type B receptor. Put plainly: The concentration (nM) producing half-maximal inhibition of specific binding of [1251] Bolton Hunter CCK-8 to CCK receptors in the mouse cerebral cortex (CCK-B);value ranges from 22 to 24. It counts as tissue-based.
Data set [5] concerns the target T1, Cholecystokinin receptor type A. Nature of the data set: The concentration (nM) producing half-maximal inhibition of specific binding of [1251] Bolton Hunter CCK-8 to CCK receptors in the rat pancreas (CCK-A);value ranges from 2300 to 3500.
Data set [6] in a line: Dissociation constant, pKa was determined; experiment 2. It counts as physicochemical.
Data set [7] in a line: Dissociation constant, pKa was determined; experiment 1. It counts as physicochemical.
Data set [8] has as its target T1, Cholecystokinin receptor type A. Nature of the data set: The concentration (nM) producing half-maximal inhibition of specific binding of [1251] Bolton Hunter CCK-8 to CCK receptors in the rat pancreas (CCK-A); value ranges from 680 to 970.
Data set [9] addresses T2, Gastrin/cholecystokinin type B receptor. Put plainly: The concentration (nM) producing half-maximal inhibition of specific binding of [1251] Bolton Hunter CCK-8 to CCK receptors in the mouse cerebral cortex (CCK-B);value ranges from 63 to 170. The class given is tissue-based.
Data set [10] shares this target. Put plainly: The concentration (nM) producing half-maximal inhibition of specific binding of [1251] Bolton Hunter CCK-8 to CCK receptors in the mouse cerebral cortex (CCK-B);value ranges from 3.0 to 8.1. The class given is tissue-based.
The target in data set [11] is T1, Cholecystokinin receptor type A. Nature of the data set: The concentration (nM) producing half-maximal inhibition of specific binding of [1251] Bolton Hunter CCK-8 to CCK receptors in the rat pancreas (CCK-A); value ranges from 1000 to 1100.
Data set [12] has the same target. Put plainly: The concentration (nM) producing half-maximal inhibition of specific binding of [1251] Bolton Hunter CCK-8 to CCK receptors in the rat pancreas (CCK-A);value ranges from 620 to 770.
The target in data set [13] is T2, Gastrin/cholecystokinin type B receptor. Nature of the data set: The concentration (nM) producing half-maximal inhibition of specific binding of [1251] Bolton Hunter CCK-8 to CCK receptors in the mouse cerebral cortex (CCK-B);value ranges from 62 to 98. The class given is tissue-based.
For data set [14] the target is unchanged. Put plainly: The concentration (nM) producing half-maximal inhibition of specific binding of [1251] Bolton Hunter CCK-8 to CCK receptors in the mouse cerebral cortex (CCK-B);value ranges from 8.6 to 32. It counts as tissue-based.
In data set [15] the target is T1, Cholecystokinin receptor type A. Put plainly: The concentration (nM) producing half-maximal inhibition of specific binding of [1251] Bolton Hunter CCK-8 to CCK receptors in the rat pancreas (CCK-A);value ranges from 900 to 1900.

Some results are limits rather than exact numbers.

The IC50 is the concentration that inhibits the measured activity by half. As usually defined, the pKa is the negative logarithm of the acid dissociation constant. Higher therefore signals a group that holds its proton tightly.

Take `CC(Cc1c[nH]c2ccccc12)(NC(=O)OC1C2CC3CC(C2)CC1C3)C(=O)NC[C@H](NC(=O)CCC(=O)Nc1nn[nH]n1)c1ccccc1` (single isomer, unassigned): the IC50 in data set [1] is 1200 nM; in data set [2] it was 6.3 nM. The same compound yielded a pKa in [3] of 5.2.

Consider `C[C@@](Cc1c[nH]c2ccccc12)(NC(=O)OC1C2CC3CC(C2)CC1C3)C(=O)NC[C@H](NC(=O)CCC(=O)O)c1ccccc1` (stereo not given in full), for which the pKa in [3] was 5.6.

Turning to `CC(Cc1c[nH]c2ccccc12)(NC(=O)OC1C2CC3CC(C2)CC1C3)C(=O)NC[C@H](NC(=O)CCP(=O)(O)O)c1ccccc1` (single isomer, unassigned), the IC50 was determined as 23 nM in [4] and 2700 nM in [5]. For the same compound, the pKa in [6] stood at 7.8; in [7], 3.4.

For the compound `CC(Cc1c[nH]c2ccccc12)(NC(=O)OC1C2CC3CC(C2)CC1C3)C(=O)NC[C@H](NC(=O)CCNC(=O)C(F)(F)F)c1ccccc1` (single isomer, unassigned), the half-maximal inhibitory concentration (IC50) was determined as 800 nM in [8] and 89 nM in data set [9]. The same compound had a pKa in data set [3] of more than 9.5.

In the case of `CC(Cc1c[nH]c2ccccc12)(NC(=O)OC1C2CC3CC(C2)CC1C3)C(=O)NC[C@H](NC(=O)CCc1nnn[nH]1)c1ccccc1` (single isomer, unassigned), the results for the IC50 in data set [10] and in data set [11] were 5.6 nM and 1070 nM, respectively. The compound further came in with a pKa in data set [3] of 5.4.

Turning to `CC(Cc1c[nH]c2ccccc12)(NC(=O)OC1C2CC3CC(C2)CC1C3)C(=O)NC[C@H](NC(=O)CCNS(=O)(=O)C(F)(F)F)c1ccccc1` (single isomer, unassigned), the IC50 in [12] is 680 nM; in [13], 77 nM. Moreover, the pKa in data set [3] turned out to be 7.9.

Consider `CC(Cc1c[nH]c2ccccc12)(NC(=O)OC1C2CC3CC(C2)CC1C3)C(=O)NC[C@H](NC(=O)CCC(=O)NO)c1ccccc1` (single isomer, unassigned), for which the IC50 came to 14 nM in data set [14] and 1800 nM in data set [15]. The compound also displayed a pKa in [3] of more than 9.5.
